Laboratory results as given in ChEMBL document CHEMBL4052631, “Synthesis of selective 11β-HSD1 inhibitors based on dammarane scaffold” (Eur J Med Chem, 2017).

Key:
[1] = biological target: 11-beta-hydroxysteroid dehydrogenase 1 (Mus musculus) (UniProt P50172); details: at 1 µM
Description: Inhibition of full-length mouse 11beta-HSD1 expressed in HEK293 microsomal fraction at 1 uM using [3H]cortisone as substrate after 1 hr by scintillation proximity assay relative to control

[2] = biological target: T1, 11-beta-hydroxysteroid dehydrogenase 1 (Homo sapiens, UniProt P28845); details: HEK293, at 1 µM
Target sequence in this assay (P28845 whole entry, looked up): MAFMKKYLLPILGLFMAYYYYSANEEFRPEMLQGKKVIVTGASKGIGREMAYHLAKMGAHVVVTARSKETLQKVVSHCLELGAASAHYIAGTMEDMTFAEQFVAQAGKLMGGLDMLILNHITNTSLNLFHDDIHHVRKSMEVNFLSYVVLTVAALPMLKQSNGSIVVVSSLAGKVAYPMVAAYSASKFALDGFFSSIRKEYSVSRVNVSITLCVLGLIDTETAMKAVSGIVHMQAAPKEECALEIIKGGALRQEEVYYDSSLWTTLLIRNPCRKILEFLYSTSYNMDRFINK
Description: Inhibition of full-length human 11beta-HSD1 expressed in HEK293 microsomal fraction at 1 uM using [3H]cortisone as substrate after 2 hr by scintillation proximity assay relative to control

[3] = biological target: T1, 11-beta-hydroxysteroid dehydrogenase 1; assay: Inhibition of full-length human 11beta-HSD1 expressed in HEK293 microsomal fraction using [3H]cortisone as substrate after 2 hr by scintillation proximity assay
Target sequence in this assay (P28845 whole entry): as the sequence (P28845 whole entry, looked up) above

[4] = biological target: T2, 11-beta-hydroxysteroid dehydrogenase 1 (Mus musculus, UniProt P50172); assay: Inhibition of full-length mouse 11beta-HSD1 expressed in HEK293 microsomal fraction […] after 1 hr by scintillation proximity assay
T2 sequence (P50172 whole entry): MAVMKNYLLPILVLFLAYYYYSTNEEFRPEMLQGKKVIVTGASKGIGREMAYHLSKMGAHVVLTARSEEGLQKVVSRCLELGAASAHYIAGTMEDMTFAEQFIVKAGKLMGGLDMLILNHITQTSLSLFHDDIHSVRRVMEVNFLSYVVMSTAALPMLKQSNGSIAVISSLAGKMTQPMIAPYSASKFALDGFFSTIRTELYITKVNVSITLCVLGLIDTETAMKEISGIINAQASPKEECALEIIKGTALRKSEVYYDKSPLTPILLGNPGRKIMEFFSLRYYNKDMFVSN

[5] = biological target: T3, 11-beta-hydroxysteroid dehydrogenase type 2 (Mus musculus, UniProt P51661); assay: Inhibition of full-length mouse 11beta-HSD2 expressed in HEK293 microsomal fraction […] after 1 hr by scintillation proximity assay
T3 sequence (P51661 whole entry): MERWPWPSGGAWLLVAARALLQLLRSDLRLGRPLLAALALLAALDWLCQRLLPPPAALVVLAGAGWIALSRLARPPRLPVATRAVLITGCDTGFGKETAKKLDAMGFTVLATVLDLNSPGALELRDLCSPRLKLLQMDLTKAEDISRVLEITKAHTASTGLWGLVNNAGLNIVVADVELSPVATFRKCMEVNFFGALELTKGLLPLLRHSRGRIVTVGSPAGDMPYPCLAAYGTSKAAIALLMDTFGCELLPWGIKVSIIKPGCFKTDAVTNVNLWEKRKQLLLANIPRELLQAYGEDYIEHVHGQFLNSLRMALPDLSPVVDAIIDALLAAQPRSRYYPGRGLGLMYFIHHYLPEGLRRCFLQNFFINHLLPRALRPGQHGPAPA

[6] = biological target: T1, 11-beta-hydroxysteroid dehydrogenase 1; assay: Inhibition of human N-terminal His-tagged 11beta-HSD1 expressed in Escherichia coli using cortisol as substrate by fluorescence-based assay
Target sequence in this assay (P28845 whole entry): as the sequence (P28845 whole entry, looked up) above

[7] = biological target: T2, 11-beta-hydroxysteroid dehydrogenase 1; assay: Inhibition of mouse N-terminal His-tagged 11beta-HSD1 expressed in Escherichia coli using cortisol as substrate by fluorescence-based assay
[8] = biological target: T4, 11-beta-hydroxysteroid dehydrogenase type 2 (Homo sapiens, UniProt P80365); assay: Inhibition of full-length human 11beta-HSD2 expressed in HEK293 microsomal fraction using [3H]cortisone as substrate after 2 hr by scintillation proximity assay; assay type: cell-based
T4 sequence (P80365 whole entry): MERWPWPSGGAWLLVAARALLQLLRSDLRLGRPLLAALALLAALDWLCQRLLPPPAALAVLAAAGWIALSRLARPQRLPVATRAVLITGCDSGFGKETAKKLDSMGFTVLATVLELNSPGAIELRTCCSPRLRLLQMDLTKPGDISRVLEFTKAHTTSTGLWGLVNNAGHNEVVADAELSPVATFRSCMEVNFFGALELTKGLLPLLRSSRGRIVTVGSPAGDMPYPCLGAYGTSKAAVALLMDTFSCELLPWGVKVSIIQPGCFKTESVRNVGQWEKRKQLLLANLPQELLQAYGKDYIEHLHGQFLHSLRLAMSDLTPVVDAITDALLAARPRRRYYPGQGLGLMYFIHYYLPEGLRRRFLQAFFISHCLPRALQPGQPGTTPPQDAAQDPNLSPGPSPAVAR

Sequence of 11-beta-hydroxysteroid dehydrogenase 1 (Mus musculus) (P50172 whole entry, looked up): as the sequence (P50172 whole entry) above

| inhibition [1] [%] | SMILES | other results |
| --- | --- | --- |
| 15.4 | CC(=O)O[C@H]1CC[C@]2(C)[C@H]3C[C@@H](OC(C)=O)C4=CCC[C@@]4(C)[C@]3(C)CC[C@H]2C1(C)C |  |
| 27.6 | CC(=O)[C@H]1CC[C@]2(C)[C@@H]1[C@H](O)C[C@@H]1[C@@]3(C)CCC(=O)OC(C)(C)[C@@H]3CC[C@]12C |  |
| 20.1 | CC(=O)O[C@H]1CC[C@]2(C)[C@H]3C[C@@H](OC(C)=O)[C@@H]4[C@@H](C(=O)CO)CC[C@@]4(C)[C@]3(C)CC[C@H]2C1(C)C | inhibition [2]: 62.6%; IC50 [3]: 488 nM |
| 60.9 | CC(=O)O[C@H]1CC[C@]2(C)[C@H]3C[C@@H](O)[C@@H]4[C@@H](C(C)=O)CC[C@@]4(C)[C@]3(C)CC[C@H]2C1(C)C | IC50 [4]: 454 nM; IC50 [5]: > 10000 nM |
| 7.69 | COC(=O)[C@H]1CC[C@]2(C)[C@@H]1[C@H](O)C[C@@H]1[C@@]3(C)CC[C@H](O)C(C)(C)[C@@H]3CC[C@]12C |  |
| 11.5 | COCO[C@H]1CC[C@]2(C)[C@H]3C[C@@H](OCOC)[C@@H]4[C@@H](C(C)=O)CC[C@@]4(C)[C@]3(C)CC[C@H]2C1(C)C |  |
| 20.9 | CC(=O)OCO[C@@H]1C[C@@H]2[C@@]3(C)CC[C@H](O)C(C)(C)[C@@H]3CC[C@@]2(C)[C@]2(C)CCC(=O)[C@@H]12 |  |
| 12.5 | CC(=O)O[C@H]1CC[C@]2(C)[C@H]3C[C@@H](OC(C)=O)[C@@H]4C(=O)CC[C@@]4(C)[C@]3(C)CC[C@H]2C1(C)C |  |
| 40.9 | CC(=O)O[C@H]1CC[C@]2(C)[C@H]3C[C@@H](OC(C)=O)[C@@H]4[C@@H](C(C)=O)CC[C@@]4(C)[C@]3(C)CC[C@H]2C1(C)C | inhibition [2]: 69.4%; IC50 [3]: 244 nM |
| 27.1 | CC(=O)[C@H]1CC[C@]2(C)[C@@H]1[C@H](O)C[C@@H]1[C@@]3(C)CC[C@H](O)C(C)(C)[C@@H]3CC[C@]12C |  |
| 13.3 | CC(=O)O[C@H]1CC[C@]2(C)[C@H]3C[C@@H](OC(C)=O)[C@@H]4[C@@H](O)CC[C@@]4(C)[C@]3(C)CC[C@H]2C1(C)C |  |
| 65.7 | CC(=O)[C@]1(O)CC[C@]2(C)[C@@H]1[C@H](O)C[C@@H]1[C@@]3(C)CC[C@H](O)C(C)(C)[C@@H]3CC[C@]12C | IC50 [4]: 601 nM; IC50 [5]: > 10000 nM |
| 11.5 | CCC(=O)CC[C@]1(C)C(=O)[C@H](O)C[C@@H]2[C@@]3(C)CC[C@H](OC(C)=O)C(C)(C)[C@@H]3CC[C@]21C | IC50 [8]: 6260 nM; inhibition [2]: 54.3%; IC50 [3]: 729 nM |
| 79 | CC(=O)O[C@H]1CC[C@]2(C)[C@H]3C[C@@H](O)[C@@H]4[C@@H](O)CC[C@@]4(C)[C@]3(C)CC[C@H]2C1(C)C | IC50 [4]: 213 nM; IC50 [8]: > 10000 nM; inhibition [2]: 51.6%; IC50 [3]: 994 nM; IC50 [5]: > 10000 nM |
| 11.9 | CC(=O)O[C@H]1CC[C@]2(C)[C@H]3C[C@@H](OC(C)=O)[C@@H]4[C@@H](C(=O)CF)CC[C@@]4(C)[C@]3(C)CC[C@H]2C1(C)C |  |
| 8.02 | CC(=O)O[C@H]1CC[C@]2(C)[C@H]3C[C@@H](OC(C)=O)[C@@H]4[C@@H](Cl)CC[C@@]4(C)[C@]3(C)CC[C@H]2C1(C)C |  |
| 10.8 | CC(=O)O[C@H]1CC[C@]2(C)[C@H]3C[C@@H](OC(C)=O)[C@@H]4[C@@H](C(=O)CCCC(C)C)CC[C@@]4(C)[C@]3(C)CC[C@H]2C1(C)C | inhibition [2]: 81.1%; IC50 [3]: 101 nM |
| 17.3 | CC(C)CCCC(=O)[C@H]1CC[C@]2(C)[C@@H]1[C@H](O)C[C@@H]1[C@@]3(C)CC[C@H](O)C(C)(C)[C@@H]3CC[C@]12C |  |
| 13.3 | CCC(=O)CC[C@]1(C)C(=O)[C@H](OC(C)=O)C[C@@H]2[C@@]3(C)CC[C@H](OC(C)=O)C(C)(C)[C@@H]3CC[C@]21C |  |

More lines, now with the values behind:

| SMILES | inhibition [1] [%] | other results |
| --- | --- | --- |
| CC1(C)[C@@H](O)CC[C@]2(C)[C@H]3C[C@@H](O)[C@@H]4[C@@H](C(=O)O)CC[C@@]4(C)[C@]3(C)CC[C@@H]12 | 15.1 |  |
| CC1(C)[C@@H](O)CC[C@]2(C)[C@H]3C[C@@H](O)C4=CCC[C@@]4(C)[C@]3(C)CC[C@@H]12 | 33.2 |  |
| CC(C)(O)[C@@H]1CC[C@]2(C)[C@H](C[C@@H](O)[C@@H]3[C@@H](O)CC[C@]32C)[C@@]1(C)CCCO | 16.1 |  |
| CO[C@H]1CC(=O)[C@]2(C)[C@@H]1[C@H](OC(C)=O)C[C@@H]1[C@@]3(C)CC[C@H](O)C(C)(C)[C@@H]3CC[C@]12C |  | IC50 [4]: 400 nM |
| CC(C)(O)[C@@H]1CC[C@]2(C)[C@H](C[C@@H](O)[C@@H]3[C@@H](O)CC[C@]32C)[C@@]1(C)CCC(=O)O | 20.8 |  |
| CC1(C)[C@@H](O)CC[C@]2(C)[C@H]3C[C@@H](O)[C@@H]4[C@@H](CO)CC[C@@]4(C)[C@]3(C)CC[C@@H]12 | 57.9 | IC50 [4]: 476 nM; IC50 [5]: > 10000 nM |
| CC1=C2CC[C@]3(C)[C@@H]2[C@@H](C[C@@H]2[C@@]4(C)CC[C@H](O)C(C)(C)[C@@H]4CC[C@]23C)OCO1 | 15.5 |  |
| CC1(C)[C@@H](O)CC[C@]2(C)[C@H]3C[C@@H](O)[C@@H]4CCC[C@@]4(C)[C@]3(C)CC[C@@H]12 | 58.4 | IC50 [4]: 592 nM; IC50 [5]: > 100000 nM |
| CC1=CC[C@@]2(CC1O)[C@@H](C(=O)O)CC[C@H]2C(C)C (stereo partly drawn) |  | IC50 [6]: 13 nM; IC50 [7]: 460 nM |
| CC1(C)[C@@H](O)CC[C@]2(C)[C@H]3C[C@H]4OC[C@H]5CC[C@](C)([C@@H]54)[C@]3(C)CC[C@@H]12 | 44.9 |  |
| CC1(C)[C@@H](O)CC[C@]2(C)[C@H]3C[C@@H](O)[C@]45O[C@H]4CC[C@@]5(C)[C@]3(C)CC[C@@H]12 | 16.9 |  |
| CC1(C)[C@@H](O)CC[C@]2(C)[C@H]3C[C@@H](O)[C@@H]4[C@@H](C(=O)CO)CC[C@@]4(C)[C@]3(C)CC[C@@H]12 | 32.2 |  |
| CC1(C)[C@@H](O)CC[C@]2(C)[C@H]3C[C@@H](O)[C@@H]4[C@@H](Cl)CC[C@@]4(C)[C@]3(C)CC[C@@H]12 | 35.8 |  |
| CC1(C)[C@@H](O)CC[C@]2(C)[C@H]3CC(=O)C4=CCC[C@@]4(C)[C@]3(C)CC[C@@H]12 | 47.4 | IC50 [8]: 9580 nM; inhibition [2]: 50.2%; IC50 [3]: 1050 nM |
| CC1(C)[C@@H](O)CC[C@]2(C)[C@H]3C[C@@H](O)[C@@H]4[C@H](O)CC[C@@]4(C)[C@]3(C)CC[C@@H]12 | 47 |  |
| CC1(C)[C@@H](O)CC[C@]2(C)[C@H]3C[C@@H](O)[C@@H]4[C@@H](O)CC[C@@]4(C)[C@]3(C)CC[C@@H]12 | 28.2 |  |
| CC1(C)CCC[C@]2(C)[C@H]3C[C@@H](O)[C@@H]4[C@@H](O)CC[C@@]4(C)[C@]3(C)CC[C@@H]12 | 6.25 |  |
| CC1(C)C=CC[C@]2(C)[C@H]3C[C@@H](O)[C@@H]4[C@@H](O)CC[C@@]4(C)[C@]3(C)CC[C@@H]12 | 40.9 |  |
